Values of other authors in patent US7511157B2, “Hepatitis C inhibitor dipeptide analogs” (Boehringer Ingelheim International GmbH, priority 2004, dated 2009).

Test system: hepatitis C virus
Conditions: two day clinical trial; Gastroenterology (2004) 127(5): 1347-1355

COc1ccc2c(O[C@@H]3C[C@H]4C(=O)N[C@]5(C(=O)O)C[C@H]5/C=C\CCCCC[C@H](NC(=O)OC5CCCC5)C(=O)N4C3)cc(-c3csc(NC(C)C)n3)nc2c1 [BILN 2061]
reduction of viral loads in patients: effective in rapidly reducing viral loads
